The source of these data is ChEMBL document CHEMBL5107996, “Design and evaluation of achiral, non-atropisomeric 4-(aminomethyl)phthalazin-1(2H)-one derivatives as novel PRMT5/MTA inhibitors” (Bioorg Med Chem, 2022).

The structures appear in SMILES notation.

A short description of data set [1]: Metabolic stability in human hepatocytes assessed as intrinsic clearance. In kind it is ADME, cell-based, Hepatocyte. Particulars: read-out: CLH.
Data set [2] relates to HepG2. Briefly: Antiproliferative activity against human HepG2 cells assessed as inhibition of cell viability measured after 120 hrs CellTiter-Glo assay. In kind it is functional, cell-based. Particulars: HepG2, 120 h.
The target of data set [3] is T1, Protein arginine N-methyltransferase 5 (Homo sapiens, UniProt O14744). Briefly: Inhibition of PRMT5 methyltransferase activity in human HCT-116 cells expressing wild type MTAP assessed as inhibition of PRMT5-mediated SDMA modification level incubated for 96 hrs by In-cell Western analysis. In kind it is cell-based.
Data set [4] can be described thus: Ratio IC50 for antiproliferative activity against human HCT-116 cells expressing wild type MTAP to IC50 for antiproliferative activity against MTAP knockout human HCT-116 cells.
Data set [5] has as its target T1, Protein arginine N-methyltransferase 5. The data set can be described thus: Inhibition of PRMT5 (unknown origin) using H2A and 3H-SAM as substrates preincubated for 20 mins followed by substrate addition incubated for 60 mins in presence of MTA by radiometric HotSpot assay.
Data set [6] relates to HCT-116. The data set can be described thus: Antiproliferative activity against human HCT-116 cells expressing wild type MTAP assessed as cell viability after 10 days by CellTiter-Glo assay. Type of data set: functional, cell-based. Particulars: HCT-116, 240 h.
The subject of data set [7] is HCT-116. Briefly: Antiproliferative activity against MTAP knockout human HCT-116 cells assessed as cell viability after 10 days by CellTiter-Glo assay. The following applies: HCT-116, 240 h. In kind it is functional, cell-based.
In data set [8] the target is T1, Protein arginine N-methyltransferase 5. The data set can be described thus: Inhibition of PRMT5 methyltransferase activity in MTAP knockout human HCT-116 cells assessed as inhibition of PRMT5-mediated SDMA modification level incubated for 96 hrs by In-cell Western analysis. In kind it is cell-based.

T1 sequence (O14744 whole entry): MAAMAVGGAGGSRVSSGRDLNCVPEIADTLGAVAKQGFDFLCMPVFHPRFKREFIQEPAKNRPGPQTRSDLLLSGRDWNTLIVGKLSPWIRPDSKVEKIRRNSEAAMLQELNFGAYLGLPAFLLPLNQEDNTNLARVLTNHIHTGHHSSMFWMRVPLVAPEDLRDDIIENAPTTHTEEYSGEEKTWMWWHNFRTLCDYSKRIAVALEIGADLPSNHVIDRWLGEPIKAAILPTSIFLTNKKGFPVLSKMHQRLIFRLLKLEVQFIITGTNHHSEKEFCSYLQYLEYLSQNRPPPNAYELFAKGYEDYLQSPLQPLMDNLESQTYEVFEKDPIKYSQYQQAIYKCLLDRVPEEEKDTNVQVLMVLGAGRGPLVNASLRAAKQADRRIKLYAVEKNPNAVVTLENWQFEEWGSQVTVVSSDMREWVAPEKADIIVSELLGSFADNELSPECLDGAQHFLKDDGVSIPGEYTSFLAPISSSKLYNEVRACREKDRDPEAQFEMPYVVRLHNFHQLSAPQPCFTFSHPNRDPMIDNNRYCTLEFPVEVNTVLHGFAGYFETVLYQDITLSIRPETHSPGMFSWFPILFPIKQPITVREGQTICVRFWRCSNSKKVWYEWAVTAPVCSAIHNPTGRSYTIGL

Regarding `Cn1ncc(-c2ccc3c(=O)[nH]nc(CN)c3c2)c1-c1c(F)c(Cl)cc(OC2CC2)c1C#N`, the CLint scaled in data set [1] was under 18 mL/min/kg. Moreover, in data set [2], the IC50 stood at 6600 nM.

Turning to `Cn1ncc(-c2ccc3c(=O)[nH]nc(CN)c3c2)c1-c1sc2ccccc2c1C#N`, the IC50 in data set [3] was over 1000 nM; in data set [5] it was 37 nM; in data set [2], 18300 nM. Moreover, the “Ratio IC50” value in data set [4] stood at 100.

Turning to `Cn1ncc(-c2cc(C(F)F)c3c(=O)[nH]nc(CN)c3c2)c1-c1sc2ccccc2c1C#N`, the IC50 amounted to 759 nM in data set [3], 2030 nM in data set [6], 37 nM in data set [7] and 25 nM in data set [8]. Further, the “Ratio IC50” value in data set [4] was found to be 55. In data set [1], the CLint scaled came out at 44 mL/min/kg.

On to `Cn1ncc(-c2cc([C@H]3CCCO3)c3c(=O)[nH]nc(CN)c3c2)c1-c1sc2ccccc2c1C#N`, for which the IC50 in data set [3] turned out to be 174 nM; in data set [6] it was 29 nM; in data set [2], 290 nM; in data set [7] it was 16 nM; in data set [8] it was 4 nM. The “Ratio IC50” value in data set [4] was 2. Also, in data set [1], the CLint scaled was determined as 39 mL/min/kg.

On to `COCc1cc(-c2cnn(C)c2-c2sc3ccccc3c2C#N)cc2c(CN)n[nH]c(=O)c12`, for which the IC50 came out at 267 nM in data set [3]; 51 nM in data set [6]; 490 nM in data set [2]; 19 nM in data set [7]; 5 nM in data set [8]. Besides, the “Ratio IC50” value in data set [4] is reported as 3. Moreover, the CLint scaled in data set [1] came to 66 mL/min/kg.

Turning to `Cn1ncc(-c2cc(O)c3c(=O)[nH]nc(CN)c3c2)c1-c1sc2ccccc2c1C#N`, the IC50 in data set [3] was over 1000 nM; in data set [6], 4350 nM; in data set [7] it was 188 nM; in data set [8] it was 262 nM. In addition, the “Ratio IC50” value in data set [4] is reported as 23. Further, the CLint scaled in data set [1] was under 18 mL/min/kg.

Take `Cn1ncc(-c2cc([C@@H]3CCCO3)c3c(=O)[nH]nc(CN)c3c2)c1-c1sc2ccccc2c1C#N`: the IC50 in data set [3] is over 1000 nM; in data set [6], 2050 nM; in data set [7], 711 nM; in data set [8], 390 nM. In addition, the “Ratio IC50” value in data set [4] was found to be 3. For the same compound, in data set [1], the CLint scaled is 43 mL/min/kg.

For the compound `Cn1ncc(-c2ccc3c(=O)[nH]nc(CN)c3c2)c1-c1sc2ncccc2c1C#N`, the half-inhibitory concentration (IC50) in data set [5] came to 99 nM; in data set [7], 315 nM.

Regarding `Cn1ncc(-c2ccc3c(=O)[nH]nc(CN)c3n2)c1-c1sc2ccccc2c1C#N`, in data set [7], the IC50 was determined as 250 nM.

Turning to `Cn1ncc(-c2cnc3c(=O)[nH]nc(CN)c3c2)c1-c1sc2ccccc2c1C#N`, the IC50 in data set [5] is 1350 nM; in data set [7] it was 3510 nM.

Regarding `CCOc1cc(-c2cnn(C)c2-c2sc3ccccc3c2C#N)cc2c(CN)n[nH]c(=O)c12`, the half-maximal inhibitory concentration (IC50) in data set [3] is 618 nM; in data set [6] it was 637 nM; in data set [7], 150 nM; in data set [8], 112 nM. The “Ratio IC50” value in data set [4] came to 4. The CLint scaled in data set [1] is under 18 mL/min/kg.

In the case of `Cn1ncc(-c2ccc3c(=O)[nH]nc(CN)c3c2)c1-c1sc2cccnc2c1C#N`, the IC50 in data set [5] was 650 nM; in data set [7] it was 1540 nM.

On to `Cn1ncc(-c2cc(Cl)c3c(=O)[nH]nc(CN)c3c2)c1-c1sc2ccccc2c1C#N`, for which the IC50 in data set [3] was over 1000 nM; in data set [6], 734 nM; in data set [7], 52 nM; in data set [8] it was 17 nM. For the same compound, the “Ratio IC50” value in data set [4] worked out at 14. Further, the CLint scaled in data set [1] came to 71 mL/min/kg.

As to `Cn1ncc(-c2ccc3c(=O)[nH]nc(CN)c3c2)c1-c1sc2ccncc2c1C#N`, the IC50 in data set [5] came to 768 nM; in data set [7], 2940 nM.

Turning to `Cc1cc(-c2cnn(C)c2-c2sc3ccccc3c2C#N)cc2c(CN)n[nH]c(=O)c12`, the IC50 in data set [3] was over 1000 nM; in data set [6] it was 1470 nM; in data set [7] it was 30 nM; in data set [8] it was 17 nM. In addition, the “Ratio IC50” value in data set [4] was 49. Also, the CLint scaled in data set [1] is 27 mL/min/kg.

As to `Cn1ncc(-c2ccc3c(=O)[nH]nc(CN)c3c2)c1-c1sc2cnccc2c1C#N`, the half-maximal inhibitory concentration (IC50) in data set [5] came out at 223 nM; in data set [7] it was 1470 nM.
